From patent publication US11312723B2, “Pyranopyrazole and pyrazolopyridine immunomodulators for treatment of autoimmune diseases” (The Rockefeller University, priority 2017, dated 2022) come the findings set out here.

Each structure is given as a SMILES string.

One assay addresses Human FXIIa (Homo sapiens (Human), UniProt P00748). Nature of the assay: Factor XIIa (FXIIa) inhibitory activity, chromogenic substrate (Pefachrome XIIa) cleavage. Format: biochemical. To be noted: 10 min pre-incubation, Pefachrome XIIa 400 μM.
In a further assay the target is Human alpha-thrombin (Homo sapiens (Human), UniProt P00734). As to the kind of experiment: Thrombin counterscreen for selectivity, fluorogenic substrate cleavage. Format: biochemical. The conditions noted are these: 10 min pre-incubation, Boc-Val-Pro-Arg-AMC 20 μM. (In general: The purpose of a counterscreen is to sort out artefacts and off-target activity.)
In assay [1] the test system is Collagen-Induced Arthritis (CIA) in DBA/1 Mice. As to the kind of experiment: Collagen-Induced Arthritis (CIA) in DBA/1 mice, model of rheumatoid arthritis. Format: in vivo, mouse. From the text: For in vivo confirmation of efficacy, Example 35 was studied in a model of rheumatoid arthritis. Collagen-Induced Arthritis (CIA) in DBA/1 Mice is one of the most commonly used animal models of human rheumatoid arthritis. The joint inflammation which develops in CIA resembles inflammation in human patients with rheumatoid arthritis. Therapeutic agents that reduce rheumatoid arthritis in people (e.g. NSAIDs, corticosteroids, methotrexate, etc) are also efficacious in CIA, and efficacy in the mouse CIA model has excellent predictive value for efficacy in rheumatoid arthritis. CIA is induced by immunization with type II collagen emulsified in Complete Freund's Adjuvant, followed by a booster immunization with type II collagen emulsified in incomplete Freund's Adjuvant. Three to four weeks after immunization, inflammation develops in mouse paws, Treatment is initiated at, the time of immunization and continues for 6 weeks. […] CIA is scored blind, by a person unaware of both treatment and of previous scores for each animal. The animal's score is the total of all four paw scores on scale of 0-16, where each paw is scored as follows: 0 Normal paw; 1 One toe inflamed and swollen; 2 More than one toe, but not entire paw, inflamed and swollen, or mild swelling of entire paw; 3 Entire paw inflamed and swollen; 4 Very inflamed and swollen paw or ankylosed paw.

Human FXIIa, sequence (P00748 373-615): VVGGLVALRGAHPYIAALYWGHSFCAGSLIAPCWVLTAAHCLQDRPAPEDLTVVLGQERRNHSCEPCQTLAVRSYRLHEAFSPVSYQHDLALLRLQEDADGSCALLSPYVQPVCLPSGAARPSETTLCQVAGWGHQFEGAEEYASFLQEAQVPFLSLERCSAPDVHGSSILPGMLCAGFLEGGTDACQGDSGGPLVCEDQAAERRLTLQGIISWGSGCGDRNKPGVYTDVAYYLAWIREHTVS
Human FXIIa, sequence (P00748 20-372 partner): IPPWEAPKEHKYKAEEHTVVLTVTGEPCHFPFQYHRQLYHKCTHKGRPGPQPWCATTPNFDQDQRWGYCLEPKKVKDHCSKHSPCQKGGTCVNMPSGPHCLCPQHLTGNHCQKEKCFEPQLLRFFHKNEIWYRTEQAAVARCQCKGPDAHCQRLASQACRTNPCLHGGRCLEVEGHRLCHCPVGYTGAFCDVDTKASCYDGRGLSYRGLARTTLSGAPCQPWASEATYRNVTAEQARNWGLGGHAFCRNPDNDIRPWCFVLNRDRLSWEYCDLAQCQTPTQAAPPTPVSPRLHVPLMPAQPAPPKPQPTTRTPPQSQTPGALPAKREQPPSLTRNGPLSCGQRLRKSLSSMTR

As to `Cc1cccc2c1NCCC2C(=O)n1nc2c(c1N)CCN(S(C)(=O)=O)C2` (single isomer, unassigned) [Example 35, (S*)-(3-amino-6-(methylsulfonyl)-4,5,6,7-tetrahydropyrazolo[3,4-c]pyridine-2-yl)(8-methyl-1,2,3,4-tetrahydroquinolin-4-yl)methanone], the IC50 (commonly the point on the concentration scale where inhibition reaches its midpoint) on Human FXIIa is 0.02 µM; on Human alpha-thrombin, 18 µM. In assay [1] (CIA model), the “Effect on disease phenotype compared to placebo” value is on record as “significantly ameliorated the disease phenotype compared to placebo”. The “Maximum CIA score ± SD” value in assay [1] (scale 0-16, p value 0.0175 vs vehicle) turned out to be 5.6 ± 3.7.
`Nc1c2c(nn1C(=O)C1CCNc3ccc(F)cc31)CN(S(=O)(=O)C(F)F)CC2` (centres unmarked) [Example 159, (3-amino-6-(difluoromethyl-sulfonyl)-4,5,6,7-tetrahydro-pyrazolo[3,4-c]pyridin-2-yl)(6-fluoro-1,2,3,4-tetrahydro-quinolin-4-yl)methanone]: the IC50 amounted to 0.13 µM at Human FXIIa and 70 µM at Human alpha-thrombin.
Take `CCN1CCc2c(nn(C(=O)C3CCNc4ccc(Cl)cc43)c2N)C1` (centres unmarked) [Example 161, (3-amino-6-ethyl-4,5,6,7-tetrahydro-pyrazolo[3,4-c]pyridin-2-yl)(6-chloro-1,2,3,4-tetrahydro-quinolin-4-yl)methanone]: the values for the IC50 at Human FXIIa and against Human alpha-thrombin were 0.05 µM and 20 µM, respectively.
As to `CCN1CCc2c(nn(C(=O)C3CCNc4ccc(F)cc43)c2N)C1` (centres unmarked) [Example 163, (3-amino-6-ethyl-4,5,6,7-tetrahydro-pyrazolo[3,4-c]pyridin-2-yl)(6-fluoro-1,2,3,4-tetrahydro-quinolin-4-yl)methanone], the IC50 against Human FXIIa is 0.03 µM; on Human alpha-thrombin, more than 100 µM.
For `Nc1c2c(nn1C(=O)C1CCNc3ccc(F)cc31)CN(c1ccccn1)CC2` (centres unmarked) [Example 167, (3-amino-6-(pyridin-2-yl)-4,5,6,7-tetrahydro-pyrazolo[3,4-c]pyridin-2-yl)(6-fluoro-1,2,3,4-tetrahydro-quinolin-4-yl)methanone], the IC50 at Human FXIIa is 60 µM; against Human alpha-thrombin, more than 120 µM.
The corresponding values for `CS(=O)(=O)N1CCc2c(nn(C(=O)C3CCNc4ccc(-c5ccncc5)cc43)c2N)C1` (centres unmarked) [Example 168, (3-amino-6-(methylsulfonyl)-4,5,6,7-tetrahydro-pyrazolo[3,4-c]pyridin-2-yl)(6-(pyridin-4-yl)-1,2,3,4-tetrahydro-quinolin-4-yl)methanone] are 2 µM and 3.5 µM.
Turning to `CS(=O)(=O)N1CCc2c(N)nn(C(=O)C3CCNc4ccc(-c5ccncc5)cc43)c2C1` (centres unmarked) [Example 169, (3-amino-6-(methylsulfonyl)--4,5,6,7-tetrahydro-pyrazolo[3,4-c]pyridin-1-yl)(6-(pyridin-4-yl)-1,2,3,4-tetrahydro-quinolin-4-yl)methanone], the IC50 against Human FXIIa and against Human alpha-thrombin was 15 µM throughout.
For the molecule `Cc1cccc2c1NCCC2C(=O)n1nc2c(c1N)COCC2` (centres unmarked) [Example 188, (3-amino-6,7-dihydropyrano[4,3-c]pyrazol-2(4H)-yl)(8-methyl-1,2,3,4-tetrahydro-quinolin-4-yl)methanone], the IC50 at Human FXIIa is 0.17 µM; at Human alpha-thrombin, more than 80 µM.
Taken in the same sequence, the figures for `Nc1c2c(nn1C(=O)C1CCNc3ccc(F)cc31)COCC2` (centres unmarked) [Example 194, (3-amino-4,5-dihydropyrano[3,4-c]pyrazol-2(7H)-yl)(6-fluoro-1,2,3,4-tetrahydro-quinolin-4-yl)methanone] were 0.16 µM and 70 µM.
